Source: patent US8962608B2, “Cycloalkylnitrile pyrazole carboxamides as janus kinase inhibitors” (Merck Sharp & Dohme Corp., priority 2011, dated 2015)
Structures can show the parent of a compound that is named as a salt. Where two headings read alike, the source gives them in different places.

Tests used:
[1] = molecular target: T1, JAK1 (recombinant purified GST-tagged catalytic domain) (Homo sapiens (Human), UniProt P23458);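 further: biochemical assay with HTRF read-out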
[2] = molecular target: T2, JAK2 (recombinant purified GST-tagged catalytic domain) (Homo sapiens (Human), UniProt O60674);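 further: biochemical JAK kinase assay with HTRF detection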
[3] = molecular target: T2, JAK2 (recombinant purified GST-tagged catalytic domain); experiment: biochemical
[4] = molecular target: T1, JAK1 (recombinant purified GST-tagged catalytic domain); experiment: biochemical

T1 sequence (P23458 875-1153): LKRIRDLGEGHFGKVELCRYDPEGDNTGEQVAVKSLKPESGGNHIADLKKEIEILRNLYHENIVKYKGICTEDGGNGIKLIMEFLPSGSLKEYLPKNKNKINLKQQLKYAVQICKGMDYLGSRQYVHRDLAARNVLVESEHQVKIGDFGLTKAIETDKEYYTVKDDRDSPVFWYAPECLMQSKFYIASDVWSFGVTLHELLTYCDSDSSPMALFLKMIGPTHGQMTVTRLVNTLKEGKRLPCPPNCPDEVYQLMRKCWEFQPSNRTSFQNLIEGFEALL
T2 sequence (O60674 849-1124): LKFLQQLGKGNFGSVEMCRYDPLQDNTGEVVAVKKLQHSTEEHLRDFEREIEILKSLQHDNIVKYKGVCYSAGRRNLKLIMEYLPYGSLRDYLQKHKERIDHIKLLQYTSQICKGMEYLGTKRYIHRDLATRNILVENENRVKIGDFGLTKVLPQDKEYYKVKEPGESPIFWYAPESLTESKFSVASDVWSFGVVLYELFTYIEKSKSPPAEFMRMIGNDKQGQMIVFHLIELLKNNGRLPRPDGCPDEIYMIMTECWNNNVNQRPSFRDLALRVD

SMILES | IC50 [1] | IC50 [2] | IC50 [3] | IC50 [4]
N#C[C@H]1C[C@@H](NCC2(O)CC2)CC[C@@H]1n1cc(C(N)=O)c(Nc2ccc(Cl)cc2)n1 (single isomer, unassigned) [Example 28-220, 3-[(4-chlorophenyl)amino]-1-[(1S,2S,4S or 1R,2R,4R)-2-cyano-4-{[(1-hydroxycyclo-propyl)methyl]amino}cyclohexyl]-1H-pyrazole-4-carboxamide] | 2 nM | 30 nM |  | 
CS(=O)(=O)c1ccc(Nc2nn(C3CCCCC3C#N)cc2C(N)=O)cc1 (centres unmarked) [Example 2-15, 1-(2-cyanocyclohexyl)-3-{[4-(methylsulfonyl)phenyl]amino}-1H-pyrazole-4-carboxamide] |  | 9 nM |  | 
CS(=O)(=O)c1ccc(Nc2nn([C@H]3CCCC[C@H]3C#N)cc2C(N)=O)cc1 (single isomer, unassigned) [Example 42-3, 1-[(1S,2R or 1R,2S)-2-cyanocyclohexyl]-3-{[4-(methylsulfonyl)phenyl]amino}-1H-pyrazole-4-carboxamide] |  | 85 nM |  | 
CS(=O)(=O)c1ccc(Nc2nn([C@H]3CCC[C@H]3C#N)cc2C(N)=O)cc1 (mixture of isomers) [Example 1-5, 1-{[(1S,2R) and (1R,2S)]-2-cyanocyclopentyl]}-3-{[4-(methylsulfonyl)phenyl]amino}-1H-pyrazole-4-carboxamide] | 5 nM | 82 nM |  | 
CC1(C)C[N+](C)([C@H]2CC[C@H](n3cc(C(N)=O)c(Nc4ccc(Cl)cc4)n3)[C@@H](C#N)C2)C1 [Example 31-4, 1-[(1S,3S,4S)-4-{4-carbamoyl-3-[(4-chlorophenyl)amino]-1H-pyrazol-1-yl}-3-cyanocyclohexyl]-1,3,3-trimethylazetidinium] | 1 nM | 34 nM |  | 
CC(C)(C)OC(=O)NCC1CC[C@H](C#N)[C@@H](n2cc(C(N)=O)c(Nc3ccc(F)cc3)n2)C1 (single isomer, unassigned) [Example 11-9, tert-butyl {[(1R or S 3S,4S) and (1S or R, 3R, 4R)]-3-{4-carbamoyl-3-[(4-fluorophenyl)amino]-1H-pyrazol-1-yl}-4-cyanocyclohexyl]methyl}carbamate] | 21 nM | 434 nM |  | 
CC1(C)CN(C(=O)[C@@H]2CC[C@@H](n3cc(C(N)=O)c(Nc4ccc(Cl)cc4)n3)[C@H](C#N)C2)C1 (single isomer, unassigned) [Example 35-2, 3-(4-chlorophenylamino)-1-((1R,2R,4R or 1S,2S,4S)-2-cyano-4-(3,3-dimethylazetidine-1-carbonyl)cyclohexyl)-1H-pyrazole-4-carboxamide] | 9 nM | 290 nM |  | 
N#C[C@H]1C[C@H](N2CCC2)CC[C@@H]1n1cc(C(N)=O)c(Nc2ccc(OC(F)F)nc2)n1 (single isomer, unassigned) [Example 28-2, 1-[(1S,2S,4R or 1R,2R,4S)-4-(azetidin-1-yl)-2-cyanocyclohexyl]-3-{[6-(difluoromethoxy)pyridin-3-yl]amino}-1H-pyrazole-4-carboxamide] | 4 nM | 67 nM |  | 
CC1(C)CN(C(=O)[C@H]2CC[C@H](n3cc(C(N)=O)c(Nc4ccc(Cl)cc4)n3)[C@@H](C#N)C2)C1 (single isomer, unassigned) [Example 35-1, 3-(4-chlorophenylamino)-1-((1S,2S,4S or 1R,2R,4R)-2-cyano-4-(3,3-dimethylazetidine-1-carbonyl)cyclohexyl)-1H-pyrazole-4-carboxamide] | 6 nM | 45 nM |  | 
CS(=O)(=O)c1ccc(Nc2nn([C@H]3CCCC[C@@H]3C#N)cc2C(N)=O)cc1 (single isomer, unassigned) [Example 42-2, 1-[(1S,2S or 1R,2R)-2-cyanocyclohexyl]-3-{[4-(methylsulfonyl)phenyl]amino}-1H-pyrazole-4-carboxamide] |  | 27 nM |  | 
CC1(C)CN([C@H]2CC[C@H](n3cc(C(N)=O)c(Nc4ccnc(F)c4)n3)[C@@H](C#N)C2)C1 (single isomer, unassigned) [Example 28-134, 1-[(1S,2S,4S or 1R,2R,4R )-2-cyano-4-(3,3-dimethylazetidin-1-yl)cyclohexyl]-3-[(2-fluoropyridin-4-yl)amino]-1H-pyrazole-4-carboxamide] | 1 nM |  |  | 
CN(C)[C@H]1CC[C@H](n2cc(C(N)=O)c(Nc3ccc(S(=O)(=O)C(F)(F)F)cc3)n2)[C@@H](C#N)C1 (mixture of isomers) [Example 27-1, 1-[(1S,3S,4S and 1R,3R,4R)-4-[4-carbamoyl-3-({4-[(trifluoromethyl)sulfonyl]phenyl}amino)-1H-pyrazol-1-yl]-3-cyano-N,N-dimethylcyclohexanaminium trifluoroacetate] | 0.2 nM |  |  | 
N#C[C@H]1C[C@H](O)CC[C@@H]1n1cc(C(N)=O)c(Nc2ccc(C(F)(F)F)cc2)n1 (single isomer, unassigned) [Example 25-24, 1-[(1S,2S,4R or 1R,2R,4S)-2-cyano-4-hydroxycyclohexyl]-3-{[4-(trifluoromethyl)phenyl]amino}-1H-pyrazole-4-carboxamide] | 1 nM |  | 8 nM | 
COCC(C)N(C)[C@H]1CCC(n2cc(C(N)=O)c(Nc3ccc(Cl)cc3)n2)[C@@H](C#N)C1 (single isomer, unassigned) [Example 28-241, 3-[(4-chlorophenyl)amino]-1-[(1R,2S,4S1S,2S,4S or 1R,2R,4R)-2-cyano-4-{[(1S or 1R)-2-methoxy-1-methylethyl](methyl)ami-no}cyclohexyl]-1H-pyrazole-4-carboxamide] | 2 nM |  | 28 nM | 
C[N+]1([C@H]2CC[C@H](n3cc(C(N)=O)c(Nc4ccc(Cl)cc4)n3)[C@@H](C#N)C2)CCC1 [Example 31-2, 1-[(1S,3S,4S)-4-{4-carbamoyl-3-[(4-chlorophenyl)amino]-1H-pyrazol-1-yl}-3-cyanocyclohexyl]-1-methylazetidinium] | 1 nM |  |  | 
Cc1cncc(Nc2nn([C@H]3CCCC[C@@H]3C#N)cc2C(N)=O)c1 [Example 17-73, 1-[(1S,2S)-2-cyanocyclohexyl]-3-[(5-methylpyridin-3-yl)amino]-1H-pyrazole-4-carboxamide] | 16 nM |  |  | 
N#C[C@H]1C[C@@H]([N+]2(CC3CC3)CCC2)CC[C@@H]1n1cc(C(N)=O)c(Nc2ccc(Cl)cc2)n1 [Example 31-5, 1-[(1S,3S,4S)-4-{4-carbamoyl-3-[(4-chlorophenyl)amino]-1H-pyrazol-1-yl}-3-cyanocyclohexyl]-1-(cyclopropylmethyl)azetidinium] | 0.85 nM |  |  | 
CC1(N[C@H]2CCC(n3cc(C(N)=O)c(Nc4ccc(Cl)cc4)n3)[C@@H](C#N)C2)CC1 (single isomer, unassigned) [Example 28-205, 3-[(4-chlorophenyl)amino]-1-{(1S,2S,4S or 1R,2R,4R,)-2-cyano-4-[(1-methylcyclopropyl)amino]cyclo-hexyl}-1H-pyrazole-4-carboxamide] | 0.9 nM |  |  | 
CS(=O)(=O)c1ccc(Nc2nn([C@H]3CCCC[C@H]3C#N)cc2C(N)=O)cc1 (single isomer, unassigned) [Example 42-4, 1-[(1S,2R or 1R,2S)-2-cyanocyclohexyl]-3-{[4-(methylsulfonyl)phenyl]amino}-1H-pyrazole-4-carboxamide] |  | 7 nM |  | 
CC(O)(c1ccc(Nc2nn([C@H]3CCCC[C@@H]3C#N)cc2C(N)=O)cn1)C(F)F (single isomer, unassigned) [Example 17-40, 1-[(1S,2S or 1R,2R)-2-cyanocyclohexyl]-3-({6-[(1R or 1S)-2,2-difluoro-1-hydroxy-1-methylethyl]pyridin-3-yl}amino)-1H-pyrazole-4-carboxamide] | 0.24 nM |  |  | 
N#C[C@@H]1CCCC[C@@H]1n1cc(C(N)=O)c(Nc2ccc(CC(=O)O)cc2)n1 (mixture of isomers) [Example 3-1, [4-({4-carbamoyl-1-[(1S,2R and 1R,2S)-2-cyanocyclohexyl]-1H-pyrazol-3-yl}amino)phenyl]acetic acid] |  | 109 nM |  | 
CC(C)(C)OC(=O)C1CCC(n2cc(C(N)=O)c(Nc3ccc(S(=O)(=O)C(F)(F)F)cc3)n2)C(C#N)C1 (centres unmarked) [Example 17-2, tert-butyl 4-[4-carbamoyl-3-({4-[(trifluoromethyl)sulfonyl]phenyl}amino)-1H-pyrazol-1-yl]-3-cyanocyclohexanecarboxylate] | 23 nM |  |  | 
CN(C)[C@@H]1CC[C@H](n2cc(C(N)=O)c(Nc3ccc(S(=O)(=O)C(F)(F)F)cc3)n2)[C@@H](C#N)C1 (mixture of isomers) [Example 27-2, 1-[(1R,3S,4S and 1S,3R,4R)-4-[4-carbamoyl-3-({4-[(trifluoromethyl)sulfonyl]phenyl}amino)-1H-pyrazol-1-yl]-3-cyano-N,N-dimethylcyclohexanaminium trifluoroacetate] | 0.5 nM |  |  | 
N#C[C@H]1CCCC[C@@H]1n1cc(C(N)=O)c(Nc2ccc(Br)cc2)n1 (single isomer, unassigned) [Example 17-26, 3-[(4-bromophenyl)amino]-1-[(1S,2S or 1R,2R)-2-cyanocyclohexyl]-1H-pyrazole-4-carboxamide] |  |  | 11 nM | 1 nM
N#C[C@H]1C[C@H](O)CC[C@@H]1n1cc(C(N)=O)c(Nc2ccc([C@@H](O)C(F)(F)F)cc2)n1 (single isomer, unassigned) [Example 25-15, 1-[(1S,2S,4R or 1R,2R,4S)-2-cyano-4-hydroxycyclohexyl]-3-({4-[(1R or 1S)-2,2,2-trifluoro-1-hydroxyethyl]phenyl}amino)-1H-pyrazole-4-carboxamide] |  |  | 3 nM | 0.3 nM
CC1(O)CN(C(=O)[C@@H]2CC[C@@H](n3cc(C(N)=O)c(Nc4ccc(Cl)cc4)n3)[C@H](C#N)C2)C1 (single isomer, unassigned) [Example 35-27, 3-[(4-chlorophenyl)amino]-1-{(1R,2R,4R or 1S,2S,4S)-2-cyano-4 [(3-hydroxy-3-methylazetidin-1-yl)carbonyl]cyclohexyl}-1H-pyrazole-4-carboxamide] |  |  | 35 nM | 5 nM
